According to ChEMBL document CHEMBL4834480, “Discovery of 3,5-Dimethyl-4-Sulfonyl-1H-Pyrrole-Based Myeloid Cell Leukemia 1 Inhibitors with High Affinity, Selectivity, and Oral Bioavailability” (J Med Chem, 2021):
Each block holds one compound with its values, some of them ahead of it. The source made the active and inactive calls. The calls are words filed in the database; no cut-off is given here.

Tests used:
[1] = biological target: Apoptosis regulator Bcl-2 (Homo sapiens, UniProt P10415); test: Inhibition of FITC-labeled Bak BH3 peptide binding to GST-tagged BCL2 (1 to 205 residues) (unknown origin) expressed in Escherichia coli BL21 (DE3) at 10 uM incubated for 30 mins fluorescence polarization-based competitive binding assay relative to control
Chain of Apoptosis regulator Bcl-2 (P10415 whole entry, the tested form may be a part): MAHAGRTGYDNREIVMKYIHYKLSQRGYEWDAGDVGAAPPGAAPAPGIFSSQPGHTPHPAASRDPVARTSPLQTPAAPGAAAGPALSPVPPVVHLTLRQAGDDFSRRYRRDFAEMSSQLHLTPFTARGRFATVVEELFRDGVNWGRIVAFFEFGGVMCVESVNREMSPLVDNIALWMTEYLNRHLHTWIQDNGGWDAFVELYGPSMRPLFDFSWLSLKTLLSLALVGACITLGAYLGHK

[2] = biological target: Induced myeloid leukemia cell differentiation protein Mcl-1 (Homo sapiens, UniProt Q07820); test: Inhibition of FITC-labeled Bak BH3 peptide binding to GST-tagged MCL1 (171 to 327 residues) (unknown origin) expressed in Escherichia coli BL21 (DE3) incubated for 30 mins fluorescence polarization-based competitive binding assay
Chain of Induced myeloid leukemia cell differentiation protein Mcl-1 (Q07820 whole entry, the tested form may be a part): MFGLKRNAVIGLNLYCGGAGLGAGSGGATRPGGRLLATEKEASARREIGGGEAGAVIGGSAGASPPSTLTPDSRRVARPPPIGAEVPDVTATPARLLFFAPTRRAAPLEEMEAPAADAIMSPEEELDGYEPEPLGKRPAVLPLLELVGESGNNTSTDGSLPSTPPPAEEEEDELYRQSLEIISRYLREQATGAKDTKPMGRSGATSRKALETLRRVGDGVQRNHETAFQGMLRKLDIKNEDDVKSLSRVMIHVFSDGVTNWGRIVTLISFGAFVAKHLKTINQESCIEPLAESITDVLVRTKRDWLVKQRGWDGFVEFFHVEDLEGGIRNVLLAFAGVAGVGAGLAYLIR

[3] = biological target: T1, Bcl-2-related protein A1 (Homo sapiens) (UniProt Q16548); test: Inhibition of FITC-labeled Bak BH3 peptide binding to GST-tagged BFL1 (1 to 151 residues) (unknown origin) expressed in Escherichia coli BL21 (DE3) at 10 uM incubated for 30 mins fluorescence polarization-based competitive binding assay relative to control
T1 sequence (whole entry): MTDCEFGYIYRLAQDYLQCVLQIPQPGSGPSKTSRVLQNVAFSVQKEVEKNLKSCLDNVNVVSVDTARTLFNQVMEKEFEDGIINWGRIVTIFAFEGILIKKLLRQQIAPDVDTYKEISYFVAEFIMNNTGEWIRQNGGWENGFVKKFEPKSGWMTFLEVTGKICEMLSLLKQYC

[4] = system: NCI-H929; test: Antiproliferative activity against human NCI-H929 cells assessed as decrease in cell viability measured after 72 hrs by MTT assay; format: functional, cell-based; conditions: NCI-H929, 72 h
[5] = system: NCI-H23; test: Antiproliferative activity against human NCI-H23 cells assessed as decrease in cell viability measured after 72 hrs by MTT assay; format: functional, cell-based; conditions: NCI-H23, 72 h
[6] = system: MV4-11; test: Antiproliferative activity against human MV4-11 cells assessed as decrease in cell viability measured after 72 hrs by MTT assay; format: functional, cell-based; conditions: MV4-11, 72 h
[7] = biological target: Bcl-2-like protein 1 (Homo sapiens, UniProt Q07817); test: Inhibition of BCL-XL(unknown origin) at 10 uM incubated for 120 mins by TR-FRET assay relative to control
Chain of Bcl-2-like protein 1 (Q07817 whole entry): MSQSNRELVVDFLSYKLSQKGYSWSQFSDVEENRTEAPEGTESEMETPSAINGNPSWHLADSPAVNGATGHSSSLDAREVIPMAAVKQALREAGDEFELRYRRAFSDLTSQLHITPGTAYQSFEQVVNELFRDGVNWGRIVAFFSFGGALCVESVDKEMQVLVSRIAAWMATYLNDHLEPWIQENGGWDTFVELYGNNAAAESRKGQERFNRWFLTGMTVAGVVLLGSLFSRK

[8] = system: K562; test: Antiproliferative activity against human K562 cells assessed as decrease in cell viability measured after 72 hrs by MTT assay; format: functional, cell-based; conditions: K562, 72 h
[9] = system: SK-BR-3; test: Antiproliferative activity against human SK-BR-3 cells assessed as decrease in cell viability measured after 72 hrs by MTT assay; format: functional, cell-based; conditions: SK-BR-3, 72 h
[10] = system: MV4-11; test: Antitumor activity against human MV4-11 cells xenografted in BALB/c nude mouse assessed as tumor growth inhibition by measuring T/C ratio at 10 mg/kg, ip administered every two days for 14 days relative to control; format: functional; conditions: time 14 day
[11] = system: MV4-11; test: Induction of apoptosis in human MV4-11 cells xenografted in BALB/c nude mouse assessed as induction of PARP cleavage at 10 mg/kg, ip administered every two days for 14 days by Western blot analysis; format: functional, organism-based; conditions: time 14.0 day

inhibition [1]: 14.2% | Ki [2]: 70 nM | inhibition [3]: 1.82% | IC50 [4]: 390 nM | IC50 [5]: 9720 nM | IC50 [6]: 1560 nM | inhibition [7]: 27% | IC50 [8]: > 30000 nM | IC50 [9]: 6270 nM
SMILES: COc1ccc(S(=O)(=O)c2c(C)c(C(=O)O)n(CCCOc3cc(C)c(Cl)c(C)c3)c2C)cc1

Ki [2]: 1930 nM
SMILES: CCc1c(S(=O)(=O)c2ccc(C)cc2)c(CC)n(CCCOc2cc(C)c(Cl)c(C)c2)c1C(=O)O

Ki [2]: > 10000 nM
SMILES: Cc1cc(C)cc(S(=O)(=O)c2c(C)c(C(=O)O)n(CCCOc3cc(C)c(Cl)c(C)c3)c2C)c1

Ki [2]: 170 nM
SMILES: Cc1cc(OCCCn2c(C)c(S(=O)(=O)c3ccc(C(C)C)cc3)c(C)c2C(=O)O)cc(C)c1Cl

Ki [2]: > 10000 nM
SMILES: Cc1cc(OCCCn2c(C)c(S(=O)(=O)C3CCCC3)c(C)c2C(=O)O)cc(C)c1Cl

Ki [2]: 420 nM
SMILES: Cc1cc(OCCCn2c(C)c(S(=O)(=O)c3ccc([N+](=O)[O-])cc3)c(C)c2C(=O)O)cc(C)c1Cl

Ki [2]: > 10000 nM
SMILES: Cc1ccc(S(=O)(=O)Nc2cc(C(=O)O)n(CCCOc3cc(C)c(Cl)c(C)c3)c2)cc1

Ki [2]: 810 nM
SMILES: Cc1ccc(S(=O)(=O)c2cn(CCCOc3cc(C)c(Cl)c(C)c3)c(C(=O)O)c2C)cc1

Ki [2]: 1900 nM
SMILES: Cc1cc(OCCCn2c(C)c(S(=O)(=O)c3ccccn3)c(C)c2C(=O)O)cc(C)c1Cl

Ki [2]: 700 nM
SMILES: Cc1ccc(C(=O)c2cc(C(=O)O)n(CCCOc3cc(C)c(Cl)c(C)c3)c2)cc1

Ki [2]: 380 nM
SMILES: Cc1cc(OCCCn2c(C)c(S(=O)(=O)c3ccc(C(=O)c4ccccc4)cc3)c(C)c2C(=O)O)cc(C)c1Cl

Ki [2]: > 10000 nM
SMILES: Cc1cc(OCCCn2c(C)c(S(=O)(=O)c3ccccc3Br)c(C)c2C(=O)O)cc(C)c1Cl

More lines, now with the values behind:

SMILES: CC(=O)c1cccc(S(=O)(=O)c2c(C)c(C(=O)O)n(CCCOc3cc(C)c(Cl)c(C)c3)c2C)c1
Ki [2]: 550 nM

SMILES: Cc1cc(OCCCn2c(C)c(S(=O)(=O)C3CCCCC3)c(C)c2C(=O)O)cc(C)c1Cl
Ki [2]: > 10000 nM

SMILES: Cc1ccc(S(=O)(=O)c2cc(C(=O)O)n(CCCOc3cc(C)c(Cl)c(C)c3)c2)cc1
Ki [2]: 470 nM

SMILES: Cc1ccc(CNc2cc(C(=O)O)n(CCCOc3cc(C)c(Cl)c(C)c3)c2)cc1
Ki [2]: > 10000 nM

SMILES: Cc1cc(OCCCn2c(C)c(S(=O)(=O)c3ccc(-c4ccccc4)cc3)c(C)c2C(=O)O)cc(C)c1Cl
Ki [2]: 130 nM

SMILES: Cc1cc(OCCCn2c(C)c(S(=O)(=O)Cc3ccccc3)c(C)c2C(=O)O)cc(C)c1Cl
Ki [2]: 2000 nM

SMILES: Cc1cc(OCCCn2c(C)c(S(=O)(=O)c3ccc(Oc4ccccc4)cc3)c(C)c2C(=O)O)cc(C)c1Cl
Ki [2]: 200 nM

SMILES: Cc1ccc(S(=O)(=O)c2c(CC(C)C)c(C(=O)O)n(CCCOc3cc(C)c(Cl)c(C)c3)c2C)cc1
Ki [2]: 240 nM

SMILES: CCOc1ccc(S(=O)(=O)c2c(C)c(C(=O)O)n(CCCOc3cc(C)c(Cl)c(C)c3)c2C)cc1
Ki [2]: 140 nM

SMILES: CCc1ccc(S(=O)(=O)c2c(C)c(C(=O)O)n(CCCOc3cc(C)c(Cl)c(C)c3)c2C)cc1
inhibition [1]: 12.4% | Ki [2]: 70 nM | inhibition [3]: 8.77% | IC50 [4]: 490 nM | IC50 [5]: 5410 nM | IC50 [6]: 2590 nM | inhibition [7]: 36% | IC50 [8]: > 30000 nM | IC50 [9]: 3920 nM

SMILES: Cc1c2c(nn1C)CSCc1cc(n(C)n1)CSc1cc(c3ccccc3c1)OCCCc1c(C(=O)O)n(C)c3c-2c(Cl)ccc13 [AZD-5991]
IC50 [4]: 36 nM | T/C [10]: 5.18% | IC50 [5]: 190 nM | IC50 [6]: 24 nM | IC50 [8]: 29600 nM | Activity [11]: Active | IC50 [9]: 30000 nM

SMILES: Cc1cc(OCCCn2c(C)c(S(=O)(=O)c3cccs3)c(C)c2C(=O)O)cc(C)c1Cl
inhibition [1]: 7.54% | Ki [2]: 80 nM | IC50 [4]: 700 nM | IC50 [5]: 3100 nM | IC50 [6]: 2300 nM | inhibition [7]: 37% | IC50 [8]: 11300 nM | IC50 [9]: 5130 nM
